Source: patent publication US10363239B2, “Method for inhibiting growth of cancer cells” (Pain Therapeutics, Inc., priority 2013, dated 2019)
Where two headings read alike, the source gives them in different places.

Columns and labels:
mu opiate receptor (MOR) = assay: MOR agonist activity using [35S]GTPγS binding assay in striatal membranes; type: biochemical; conditions: for % DAMGO (0.1 μM) / % DAMGO (1 μM): relative to DAMGO; for % DAMGO + BFNA: 1 μM compound + β-FNA, relative to DAMGO + BFNA
In short: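 Striatal membranes (200 μg) were preincubated 5 min at 30 °C in HEPES pH 7.5 with 100 mM NaCl, 1 mM MgCl2 and 0.5 nM [35S]GTPγS, then 5 min more with 0.1–10 μM compound. Gαo was immunoprecipitated and bound radioactivity counted by scintillation.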

[1] = molecular target: FLNA pentapeptide of SEQ ID NO: 1 (Bn-VAKGL) (Homo sapiens, UniProt P21333); assay: FITC-NLX-based FLNA screening assay (inhibition of FITC-naloxone binding to Bn-VAKGL on streptavidin plates); conditions: 10 nM FITC-NLX
[2] = Series C-1, 0.1 μM compound, [35S]GTPγS binding to Gαo, striatal membranes
[3] = Series C-1, 1 μM compound + 1 μM β-FNA
[4] = Series C-1, 1 μM compound, [35S]GTPγS binding to Gαo, striatal membranes
[5] = FLNA-binding compound 0.01 μM, read-out: Percent Binding Inhibition
[6] = FLNA-binding compound 0.1 μM, read-out: Percent Binding Inhibition
[7] = FLNA-binding compound 1 μM, read-out: Percent Binding Inhibition
[8] = Series C-2, 0.1 μM compound, [35S]GTPγS binding to Gαo, striatal membranes
[9] = Series C-2, 1 μM compound + 1 μM β-FNA
[10] = Series C-2, 1 μM compound, [35S]GTPγS binding to Gαo, striatal membranes
[11] = read-out: Percent Binding Inhibition, FLNA-binding compound 0.01 μM
[12] = read-out: Percent Binding Inhibition, FLNA-binding compound 0.1 μM
[13] = read-out: Percent Binding Inhibition, FLNA-binding compound 1 μM

Row | Compound | % DAMGO (0.1 μM) (mu opiate receptor (MOR); Series C-1, 0.1 μM compound) [%] | Concentration of FLNA-Binding Compound as Agonist 0.1 μM (mu opiate receptor (MOR); [2]) [%] | Concentration of FLNA-Binding Compound as Agonist 1 μM + BFNA (mu opiate receptor (MOR); [3]) [%] | % DAMGO + BFNA (mu opiate receptor (MOR); Series C-1) [%] | % DAMGO (1 μM) (mu opiate receptor (MOR); Series C-1, 1 μM compound) [%] | Concentration of FLNA-Binding Compound as Agonist 1 μM (mu opiate receptor (MOR); [4]) [%] | inhibition at 0.01 µM [1, 5] [%] | inhibition at 0.1 µM [1, 6] [%] | inhibition at 1 µM [1, 7] [%] | % DAMGO (0.1 μM) (mu opiate receptor (MOR); Series C-2, 0.1 μM compound) [%] | MOR agonist activity, percent [35S]GTPγS binding at the stated compound concentration (mu opiate receptor (MOR); [8]) [%] | MOR agonist activity, percent [35S]GTPγS binding at the stated compound concentration (mu opiate receptor (MOR); [9]) [%] | % DAMGO + BFNA (mu opiate receptor (MOR); Series C-2) [%] | % DAMGO (1 μM) (mu opiate receptor (MOR); Series C-2, 1 μM compound) [%] | MOR agonist activity, percent [35S]GTPγS binding at the stated compound concentration (mu opiate receptor (MOR); [10]) [%] | inhibition at 0.01 µM [1, 11] [%] | inhibition at 0.1 µM [1, 12] [%] | inhibition at 1 µM [1, 13] [%]
1 | O=C(OCc1ccccc1)c1ccc(S(=O)(=O)N2CCC3(CC2)OCCN3S(=O)(=O)c2ccc(C(=O)OCc3ccccc3)cc2)cc1 [Compound C0042] | 98.9 | 167.1 | 110.6 | 666.3 | 119.2 | 260.9 | 42.4 | 49.7 | 56.1 |  |  |  |  |  |  |  |  | 
2 | COc1ccc(S(=O)(=O)N2CCOC23CCN(C(=O)OC(C)(C)C)CC3)cc1 [Compound C0043] |  |  |  |  |  |  | 43.9 | 51.3 | 58 | 103.8 | 175.4 | 83.3 | 501.8 | 110.9 | 242.6 |  |  | 
3 | O=[N+]([O-])c1ccc(S(=O)(=O)N2CCC3(CC2)NCCS3)cc1 [Compound C0044] |  |  |  |  |  |  | 37.3 | 43.9 | 50.6 | 102.8 | 173.7 | 59.1 | 356.0 | 128.0 | 280.1 |  |  | 
4 | O=[N+]([O-])c1ccc(S(=O)(=O)N2CCC3(CC2)NCCCO3)cc1 [Compound C0045] |  |  |  |  |  |  | 39.1 | 48.9 | 53.7 | 88.3 | 149.2 | 105.3 | 634.3 | 109.1 | 238.8 |  |  | 
5 | CC(=O)c1ccc(S(=O)(=O)N2CCOC23CCNCC3)cc1 [Compound C0046] |  |  |  |  |  |  | 30.8 | 35.7 | 42.2 | 197.4 | 286.2 | 156.8 | 356.4 | 211.5 | 492.9 |  |  | 
6 | COc1ccc(S(=O)(=O)N2CCOC23CCN(S(=O)(=O)c2ccc(C(C)=O)cc2)CC3)cc1 [Compound C0047] | 98.1 | 142.2 | 80.1 | 182.0 | 88.5 | 206.1 |  |  |  |  |  |  |  |  |  | 30.8 | 35.2 | 41.4
7 | COc1ccc(S(=O)(=O)N2CCC3(CC2)OCCN3S(=O)(=O)c2ccc(C(C)=O)cc2)cc1 [Compound C0048] | 144.2 | 209.1 | 89.9 | 204.3 | 105.3 | 245.3 |  |  |  |  |  |  |  |  |  | 28.5 | 38.9 | 45.9
8 | COc1ccc(S(=O)(=O)N2CCC3(CC2)OCCN3S(=O)(=O)c2ccc(OC)c(OC)c2)cc1OC [Compound C0049] | 73.5 | 106.6 | 81.0 | 184.1 | 90.1 | 210.0 | 25.3 | 27.9 | 30.3 |  |  |  |  |  |  |  |  | 
